pEC50: −log10 of the molar value. Like-named read-outs stand apart in the source and are kept apart here.
Tests used:
Type in all cases: cell-based
[1] = biological target: T1, α7^L131G,Q139L,Y217F-5HT3 V154I, R155Y, W156N (Homo sapiens, UniProt P36544, L131G/M226I/Q139L/R155Y/T225I/V154I/W156N/Y217F); assay: EC50 dose response, PSAM4-5HT3 with additional mutations; settings: read-out: EC50s (SEM) for additional mutations of α7^L131G, Q139L, Y217F -5HT3
T1 construct: expressed in transfected cells; host or cells: HEK 293

[2] = biological target: T2, α7^L131G,Q139L,Y217F-5HT3 V154I, R155Y, W156N, S172V (Homo sapiens, UniProt P36544, L131G/M226I/Q139L/R155Y/S172V/T225I/V154I/W156N/Y217F); assay: as above; settings: read-out: EC50s (SEM) for additional mutations of α7^L131G, Q139L, Y217F -5HT3
T2 construct: expressed in transfected cells; host or cells: HEK 293

[3] = biological target: T3, α7-5HT3 L131G, Q139L, W171F (Homo sapiens, UniProt P36544, L131G/M226I/Q139L/T225I/W171F); assay: EC50 dose response, α7-5HT3 mutant; settings: read-out: EC50s (SEM) for additional mutations of α7^L131G, Q139L, Y217F -5HT3
T3 construct: expressed in transfected cells; host or cells: HEK 293

[4] = biological target: T4, α7^L131G,Q139L,Y217F-5HT3 S172A (Homo sapiens, UniProt P36544, L131G/M226I/Q139L/S172A/T225I/Y217F); assay: EC50 dose response, PSAM4-5HT3 with additional mutations; settings: additional mutation S172A; read-out: EC50s (SEM) for additional mutations of α7^L131G, Q139L, Y217F -5HT3
T4 construct: expressed in transfected cells; host or cells: HEK 293

[5] = biological target: T5, α7^L131G,Q139L,Y217F-5HT3 S172V (Homo sapiens, UniProt P36544, L131G/M226I/Q139L/S172V/T225I/Y217F); assay: as above; settings: additional mutation S172V; read-out: EC50s (SEM) for additional mutations of α7^L131G, Q139L, Y217F -5HT3
T5 construct: expressed in transfected cells; host or cells: HEK 293
T5 sequence (P36544 with tags, fused parts or gaps L131G/Q139L/S172V/Y217F/T225I/M226I limits assumed): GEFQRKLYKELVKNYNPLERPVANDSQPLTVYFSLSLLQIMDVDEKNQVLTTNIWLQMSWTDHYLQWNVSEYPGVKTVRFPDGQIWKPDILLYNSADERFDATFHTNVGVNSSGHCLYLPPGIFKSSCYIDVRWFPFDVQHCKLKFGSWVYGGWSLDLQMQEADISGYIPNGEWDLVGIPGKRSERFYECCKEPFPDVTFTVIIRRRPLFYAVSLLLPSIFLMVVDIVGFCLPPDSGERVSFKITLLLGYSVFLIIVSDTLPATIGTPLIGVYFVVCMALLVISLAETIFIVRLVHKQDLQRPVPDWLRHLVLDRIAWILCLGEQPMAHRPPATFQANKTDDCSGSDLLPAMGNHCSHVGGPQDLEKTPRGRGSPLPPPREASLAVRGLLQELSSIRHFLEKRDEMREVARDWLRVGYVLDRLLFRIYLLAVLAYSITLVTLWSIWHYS

[6] = biological target: T6, α7^L131G,Q139L,Y217F-5HT3 H163T (Homo sapiens, UniProt P36544, H163T/L131G/M226I/Q139L/T225I/Y217F); assay: as above; settings: additional mutation H163T; read-out: EC50s (SEM) for additional mutations of α7^L131G, Q139L, Y217F -5HT3
T6 construct: expressed in transfected cells; host or cells: HEK 293
T6 sequence (P36544 with tags, fused parts or gaps L131G/Q139L/H163T/Y217F/T225I/M226I limits assumed): as the sequence (P36544 with tags, fused parts or gaps L131G/Q139L/S172V/Y217F/T225I/M226I limits assumed) above, with H141T, V150S counted along it

[7] = biological target: T7, α7^L131G,Q139L,Y217F-5HT3 H163D (Homo sapiens, UniProt P36544, H163D/L131G/M226I/Q139L/T225I/Y217F); assay: as above; settings: additional mutation H163D; read-out: EC50s (SEM) for additional mutations of α7^L131G, Q139L, Y217F -5HT3
T7 construct: expressed in transfected cells; host or cells: HEK 293

[8] = biological target: T8, α7-5HT3 L131G, Q139L, Y217A (Homo sapiens, UniProt P36544, L131G/M226I/Q139L/T225I/Y217A); assay: EC50 dose response, α7-5HT3 mutant; settings: read-out: EC50s (SEM) for additional mutations of α7^L131G, Q139L, Y217F -5HT3
T8 construct: expressed in transfected cells; host or cells: HEK 293
T8 sequence (P36544 with tags, fused parts or gaps L131G/Q139L/Y217A/T225I/M226I limits assumed): as the sequence (P36544 with tags, fused parts or gaps L131G/Q139L/S172V/Y217F/T225I/M226I limits assumed) above, with V150S, F195A counted along it

[9] = biological target: T9, α7^L131G,Q139L,Y217F-5HT3 H163N (Homo sapiens, UniProt P36544, H163N/L131G/M226I/Q139L/T225I/Y217F); assay: EC50 dose response, PSAM4-5HT3 with additional mutations; settings: additional mutation H163N; read-out: EC50s (SEM) for additional mutations of α7^L131G, Q139L, Y217F -5HT3
T9 construct: expressed in transfected cells; host or cells: HEK 293

[10] = biological target: T10, α7-5HT3 L131G, Q139L, Y217H (Homo sapiens, UniProt P36544, L131G/M226I/Q139L/T225I/Y217H); assay: EC50 dose response, α7-5HT3 mutant; settings: read-out: EC50s (SEM) for additional mutations of α7^L131G, Q139L, Y217F -5HT3
T10 construct: expressed in transfected cells; host or cells: HEK 293
T10 sequence (P36544 with tags, fused parts or gaps L131G/Q139L/Y217H/T225I/M226I limits assumed): as the sequence (P36544 with tags, fused parts or gaps L131G/Q139L/S172V/Y217F/T225I/M226I limits assumed) above, with V150S, F195H counted along it

[11] = biological target: T11, α7^L131G,Q139L,Y217F-5HT3 W156N, H163T (Homo sapiens, UniProt P36544, H163T/L131G/M226I/Q139L/T225I/W156N/Y217F); assay: EC50 dose response, PSAM4-5HT3 with additional mutations; settings: read-out: EC50s (SEM) for additional mutations of α7^L131G, Q139L, Y217F -5HT3
T11 construct: expressed in transfected cells; host or cells: HEK 293
T11 sequence (P36544 with tags, fused parts or gaps L131G/Q139L/W156N/H163T/Y217F/T225I/M226I limits assumed): as the sequence (P36544 with tags, fused parts or gaps L131G/Q139L/S172V/Y217F/T225I/M226I limits assumed) above, with W134N, H141T, V150S counted along it

[12] = biological target: T12, α7^L131G,Q139L,Y217F-5HT3 S172I (Homo sapiens, UniProt P36544, L131G/M226I/Q139L/S172I/T225I/Y217F); assay: as above; settings: additional mutation S172I; read-out: EC50s (SEM) for additional mutations of α7^L131G, Q139L, Y217F -5HT3
T12 construct: expressed in transfected cells; host or cells: HEK 293
T12 sequence (P36544 with tags, fused parts or gaps L131G/Q139L/S172I/Y217F/T225I/M226I limits assumed): as the sequence (P36544 with tags, fused parts or gaps L131G/Q139L/S172V/Y217F/T225I/M226I limits assumed) above, with V150I counted along it

[13] = biological target: T13, α7^L131G,Q139L,Y217F-5HT3 H163A (Homo sapiens, UniProt P36544, H163A/L131G/M226I/Q139L/T225I/Y217F); assay: as above; settings: additional mutation H163A; read-out: EC50s (SEM) for additional mutations of α7^L131G, Q139L, Y217F -5HT3
T13 construct: expressed in transfected cells; host or cells: HEK 293

[14] = biological target: T14, α7^L131G,Q139L,Y217F-5HT3 H163R (Homo sapiens, UniProt P36544, H163R/L131G/M226I/Q139L/T225I/Y217F); assay: as above; settings: additional mutation H163R; read-out: EC50s (SEM) for additional mutations of α7^L131G, Q139L, Y217F -5HT3
T14 construct: expressed in transfected cells; host or cells: HEK 293

[15] = biological target: T15, α7^L131G,Q139L,Y217F-5HT3 H163S (Homo sapiens, UniProt P36544, H163S/L131G/M226I/Q139L/T225I/Y217F); assay: as above; settings: additional mutation H163S; read-out: EC50s (SEM) for additional mutations of α7^L131G, Q139L, Y217F -5HT3
T15 construct: expressed in transfected cells; host or cells: HEK 293
T15 sequence (P36544 with tags, fused parts or gaps L131G/Q139L/H163S/Y217F/T225I/M226I limits assumed): as the sequence (P36544 with tags, fused parts or gaps L131G/Q139L/S172V/Y217F/T225I/M226I limits assumed) above, with H141S, V150S counted along it

[16] = biological target: T16, α7^L131G,Q139L,Y217F-5HT3 W156N (Homo sapiens, UniProt P36544, L131G/M226I/Q139L/T225I/W156N/Y217F); assay: cell-based
T16 construct: expressed in transfected cells; host or cells: HEK 293

[17] = biological target: T17, α7^L131G,Q139L,Y217F-5HT3 H163T, S172A (Homo sapiens, UniProt P36544, H163T/L131G/M226I/Q139L/S172A/T225I/Y217F); assay: EC50 dose response, PSAM4-5HT3 with additional mutations; settings: read-out: EC50s (SEM) for additional mutations of α7^L131G, Q139L, Y217F -5HT3
T17 construct: expressed in transfected cells; host or cells: HEK 293
T17 sequence (P36544 with tags, fused parts or gaps L131G/Q139L/H163T/S172A/Y217F/T225I/M226I limits assumed): as the sequence (P36544 with tags, fused parts or gaps L131G/Q139L/S172V/Y217F/T225I/M226I limits assumed) above, with H141T, V150A counted along it

[18] = biological target: T18, α7^L131G,Q139L,Y217F-5HT3 H163T, S172V (Homo sapiens, UniProt P36544, H163T/L131G/M226I/Q139L/S172V/T225I/Y217F); assay: as above; settings: read-out: EC50s (SEM) for additional mutations of α7^L131G, Q139L, Y217F -5HT3
T18 construct: expressed in transfected cells; host or cells: HEK 293

[19] = biological target: T19, α7^L131G,Q139L,Y217F-5HT3 H163F (Homo sapiens, UniProt P36544, H163F/L131G/M226I/Q139L/T225I/Y217F); assay: as above; settings: additional mutation H163F; read-out: EC50s (SEM) for additional mutations of α7^L131G, Q139L, Y217F -5HT3
T19 construct: expressed in transfected cells; host or cells: HEK 293
T19 sequence (P36544 with tags, fused parts or gaps L131G/Q139L/H163F/Y217F/T225I/M226I limits assumed): as the sequence (P36544 with tags, fused parts or gaps L131G/Q139L/S172V/Y217F/T225I/M226I limits assumed) above, with H141F, V150S counted along it

[20] = biological target: T20, α7^L131G,Q139L,Y217F-5HT3 H163K (Homo sapiens, UniProt P36544, H163K/L131G/M226I/Q139L/T225I/Y217F); assay: as above; settings: additional mutation H163K; read-out: EC50s (SEM) for additional mutations of α7^L131G, Q139L, Y217F -5HT3
T20 construct: expressed in transfected cells; host or cells: HEK 293

[21] = biological target: T21, α7^L131G,Q139L,Y217F-5HT3 H163V (Homo sapiens, UniProt P36544, H163V/L131G/M226I/Q139L/T225I/Y217F); assay: as above; settings: additional mutation H163V; read-out: EC50s (SEM) for additional mutations of α7^L131G, Q139L, Y217F -5HT3
T21 construct: expressed in transfected cells; host or cells: HEK 293

[22] = biological target: T22, PSAM4-5HT3 (α7-5HT3^L131G,Q139L,Y217F) (Homo sapiens, UniProt P36544, L131G/M226I/Q139L/T225I/Y217F); assay: EC50 dose response of LGIC ligands on PSAM4-5HT3; settings: read-out: EC50s (SEM) for additional mutations of α7^L131G, Q139L, Y217F -5HT3
T22 construct: expressed in transfected cells; host or cells: HEK 293
T22 sequence (P36544 with tags, fused parts or gaps L131G/Q139L/Y217F/T225I/M226I limits assumed): as the sequence (P36544 with tags, fused parts or gaps L131G/Q139L/S172V/Y217F/T225I/M226I limits assumed) above, with V150S counted along it

[23] = biological target: T23, α7^L131G,Q139L,Y217F-5HT3 V154I, R155Y, W156N, S172A (Homo sapiens, UniProt P36544, L131G/M226I/Q139L/R155Y/S172A/T225I/V154I/W156N/Y217F); assay: EC50 dose response, PSAM4-5HT3 with additional mutations; settings: read-out: EC50s (SEM) for additional mutations of α7^L131G, Q139L, Y217F -5HT3
T23 construct: expressed in transfected cells; host or cells: HEK 293

[24] = biological target: T24, α7^L131G,Q139L,Y217F-5HT3 V154L, R155Y, W156Q (Homo sapiens, UniProt P36544, L131G/M226I/Q139L/R155Y/T225I/V154L/W156Q/Y217F); assay: as above; settings: read-out: EC50s (SEM) for additional mutations of α7^L131G, Q139L, Y217F -5HT3
T24 construct: expressed in transfected cells; host or cells: HEK 293
T24 sequence (P36544 with tags, fused parts or gaps L131G/Q139L/V154L/R155Y/W156Q/Y217F/T225I/M226I limits assumed): as the sequence (P36544 with tags, fused parts or gaps L131G/Q139L/S172V/Y217F/T225I/M226I limits assumed) above, with V132L, R133Y, W134Q, V150S counted along it

[25] = biological target: T25, α7-5HT3 L131G, Q139L, Y217V (Homo sapiens, UniProt P36544, L131G/M226I/Q139L/T225I/Y217V); assay: EC50 dose response, α7-5HT3 mutant; settings: read-out: EC50s (SEM) for additional mutations of α7^L131G, Q139L, Y217F -5HT3
T25 construct: 5HT3 ion pore domain (fusion partner); expressed in transfected cells; HEK 293 is named only for the electrophysiology

C[N+](C)(C)CCO [Choline, choline, reference compound]
pEC50 [1]: 3.48
pEC50 [2]: 3.04
pEC50 [3]: 3.75
pEC50 [4]: 3.46
pEC50 [5]: 3.05
pEC50 [6]: 3.48
pEC50 [7]: 3.44
pEC50 [8]: 3.08
pEC50 [9]: 3.97
pEC50 [10]: 2.69
pEC50 [11]: 3.19
pEC50 [12]: 2.95
pEC50 [13]: 3.66
pEC50 [14]: 3.82
pEC50 [15]: 3.61
pEC50 [16]: 3.76
pEC50 [17]: 2.99
pEC50 [18]: 2.88
pEC50 [19]: 3.64
pEC50 [20]: 3.77
pEC50 [21]: 3.29
pEC50 ([22]; PSAM4-5HT3 (no additional mutation)): 3.84
pEC50 ([22]; line L131G, Q139L, Y217F (same values as PSAM4-5HT3 line)): 3.84
pEC50 [23]: 3.17
pEC50 [24]: 4.03
pEC50 [25]: 2.93

Source: patent US20250145687A1, “MODIFIED LIGAND-GATED ION CHANNELS AND METHODS OF USE” (Howard Hughes Medical Institute, priority 2022, published 2025)
